The test system of this test is sustained AF maintained during continuous vagal nerve stimulation. As to the kind of experiment: Canine vagal-AF model: termination of sustained AF during continuous vagal nerve stimulation. Type of test: in vivo, Mongrel dogs. The procedure:
St.-Georges et al., 1997). Dogs are ventilated mechanically with room air supplemented with oxygen via an endotracheal tube at 20 to 25 breaths/minute with a tidal volume obtained from a nomogram. […] Catheters are inserted into the femoral artery for blood pressure recording and blood gas measurement, and into both femoral veins for drug administration and venous sampling. […] Body temperature is maintained at 37-40° C. with a heating blanket. The heart is exposed via a medial thoracotomy and a pericardial cradle is created. […] Drug effects to terminate sustained AF maintained during continuous vagal nerve stimulation are assessed. […] The vagal stimulation voltage is adjusted under control conditions, and then readjusted after each treatment to maintain the same bradycardic effect. […] Diastolic threshold and ERP are determined in duplicate and averaged to give a single value. […] The interval from the stimulus artefact and the peak of the local electrogram is measured as an index of conduction velocity. […] The stimulus voltage-heart rate relationship for vagal nerve stimulation is determined under control conditions in most experiments. […] After the termination of AF, the diastolic threshold and ERP of the atrium and ventricle are determined. […] Group data are expressed as the mean ±SEM. […]

As to `O=C(NCC1CCCCN1)c1cc(OCC(F)(F)F)ccc1OCC(F)(F)F` (stereo not shown) [Flecainide], the “Effectiveness as a control in the present study” value was “comparable to that previously reported”.
